Data: ChEMBL document CHEMBL1909046, “DrugMatrix in vitro pharmacology data”

Legend:
[1] = DRUGMATRIX: Potassium Channel [KATP] radioligand binding (ligand: [3H] Glyburide); assay type: cell membranes, Membrane; settings: hit-t15; Not Active = under 50% inhibition at 10 µM
[2] = target: T1, Nitric oxide synthase, inducible (Mus musculus, UniProt P29477); parameters: species or system Escherichia coli;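 note: inhibition of iNOS enzyme activity measured with L-arginine as substrate; in other assays of this panel Not Active means under 50% inhibition at 10 µM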
T1 sequence (P29477 whole entry): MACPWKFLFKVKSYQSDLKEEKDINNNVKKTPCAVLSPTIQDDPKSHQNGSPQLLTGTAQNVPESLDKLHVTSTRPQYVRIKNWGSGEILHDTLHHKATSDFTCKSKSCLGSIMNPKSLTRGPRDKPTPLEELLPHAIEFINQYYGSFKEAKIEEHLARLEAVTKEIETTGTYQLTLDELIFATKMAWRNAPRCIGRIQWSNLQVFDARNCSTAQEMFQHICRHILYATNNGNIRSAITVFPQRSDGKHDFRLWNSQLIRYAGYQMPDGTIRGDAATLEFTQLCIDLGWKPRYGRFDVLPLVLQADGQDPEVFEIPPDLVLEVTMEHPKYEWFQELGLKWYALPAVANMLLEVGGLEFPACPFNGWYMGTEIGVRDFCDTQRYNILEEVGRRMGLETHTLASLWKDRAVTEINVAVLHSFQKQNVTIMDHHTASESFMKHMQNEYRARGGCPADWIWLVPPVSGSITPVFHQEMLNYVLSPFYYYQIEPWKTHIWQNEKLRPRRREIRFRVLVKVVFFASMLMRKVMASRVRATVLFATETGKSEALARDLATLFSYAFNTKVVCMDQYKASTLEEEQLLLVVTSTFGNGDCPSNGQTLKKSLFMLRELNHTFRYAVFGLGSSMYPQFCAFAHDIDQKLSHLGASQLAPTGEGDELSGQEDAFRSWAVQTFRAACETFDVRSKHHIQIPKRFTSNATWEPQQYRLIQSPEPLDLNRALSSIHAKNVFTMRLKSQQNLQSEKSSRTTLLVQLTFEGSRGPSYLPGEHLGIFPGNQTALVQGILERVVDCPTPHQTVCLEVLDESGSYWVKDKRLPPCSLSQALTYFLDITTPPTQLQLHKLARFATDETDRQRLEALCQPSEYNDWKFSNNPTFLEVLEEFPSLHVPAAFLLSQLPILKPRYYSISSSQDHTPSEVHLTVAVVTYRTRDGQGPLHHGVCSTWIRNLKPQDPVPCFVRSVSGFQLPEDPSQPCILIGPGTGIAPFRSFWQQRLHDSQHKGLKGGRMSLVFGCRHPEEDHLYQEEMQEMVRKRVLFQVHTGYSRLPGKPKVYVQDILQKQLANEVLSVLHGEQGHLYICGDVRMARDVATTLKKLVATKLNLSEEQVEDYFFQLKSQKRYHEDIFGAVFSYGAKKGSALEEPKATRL

D(1A) dopamine receptor = D(1A) dopamine receptor (Homo sapiens, UniProt P21728); test: DRUGMATRIX: Dopamine D1 radioligand binding (ligand: [3H] SCH-23390); assay type: cell membranes, CHO, Membrane; settings: cho; Not Active = under 50% inhibition at 10 µM
[3] = target: Mitogen-activated protein kinase 3 (Homo sapiens, UniProt P27361); test: DRUGMATRIX: Protein Serine/Threonine Kinase, ERK1 enzyme inhibition (substrate: Myelin Basic Protein); parameters: species or system Escherichia coli; settings: Not Active = under 50% inhibition at 10 µM
[4] = DRUGMATRIX: Imidazoline I2, Central radioligand binding (ligand: [3H] Idazoxan); assay type: cell membranes, Rattus norvegicus, Wistar, Cerebral cortex, Membrane; settings: Not Active = under 50% inhibition at 10 µM
[5] = target: Prostaglandin G/H synthase 1 (Homo sapiens, UniProt P23219); test: biochemical; assay type: tissue-based, Platelet; settings: platelet;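 note: inhibition of COX-1 enzyme activity, with arachidonic acid supplied as substrate; in other assays of this panel Not Active means under 50% inhibition at 10 µM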
Chain of Prostaglandin G/H synthase 1 (P23219 whole entry): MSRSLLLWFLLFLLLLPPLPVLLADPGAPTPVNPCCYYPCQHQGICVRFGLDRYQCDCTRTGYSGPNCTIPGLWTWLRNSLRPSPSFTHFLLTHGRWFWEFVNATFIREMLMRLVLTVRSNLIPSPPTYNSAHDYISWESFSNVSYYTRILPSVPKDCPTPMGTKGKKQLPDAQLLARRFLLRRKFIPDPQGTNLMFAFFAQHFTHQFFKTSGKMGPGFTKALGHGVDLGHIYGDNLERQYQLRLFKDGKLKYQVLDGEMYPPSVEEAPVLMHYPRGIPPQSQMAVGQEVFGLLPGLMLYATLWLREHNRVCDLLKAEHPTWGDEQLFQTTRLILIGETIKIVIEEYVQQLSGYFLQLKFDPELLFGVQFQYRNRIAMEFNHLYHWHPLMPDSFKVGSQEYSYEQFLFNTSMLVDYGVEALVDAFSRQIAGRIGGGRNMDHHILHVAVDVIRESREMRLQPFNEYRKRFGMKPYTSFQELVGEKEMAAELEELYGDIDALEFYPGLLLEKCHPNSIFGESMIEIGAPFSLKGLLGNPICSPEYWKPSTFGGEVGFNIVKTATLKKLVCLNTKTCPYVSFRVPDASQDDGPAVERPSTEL

Chain of Mitogen-activated protein kinase 3 (P27361 whole entry): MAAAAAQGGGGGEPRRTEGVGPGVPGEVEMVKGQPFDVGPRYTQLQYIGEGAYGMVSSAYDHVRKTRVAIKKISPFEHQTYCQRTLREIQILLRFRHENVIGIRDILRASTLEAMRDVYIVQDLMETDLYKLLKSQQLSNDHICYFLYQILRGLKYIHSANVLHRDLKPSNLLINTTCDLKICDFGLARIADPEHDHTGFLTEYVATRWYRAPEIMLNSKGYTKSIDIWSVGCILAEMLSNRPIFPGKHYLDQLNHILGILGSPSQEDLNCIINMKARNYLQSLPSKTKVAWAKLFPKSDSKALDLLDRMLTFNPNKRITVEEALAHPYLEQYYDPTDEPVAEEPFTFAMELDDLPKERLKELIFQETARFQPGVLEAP
Chain of D(1A) dopamine receptor (P21728 whole entry): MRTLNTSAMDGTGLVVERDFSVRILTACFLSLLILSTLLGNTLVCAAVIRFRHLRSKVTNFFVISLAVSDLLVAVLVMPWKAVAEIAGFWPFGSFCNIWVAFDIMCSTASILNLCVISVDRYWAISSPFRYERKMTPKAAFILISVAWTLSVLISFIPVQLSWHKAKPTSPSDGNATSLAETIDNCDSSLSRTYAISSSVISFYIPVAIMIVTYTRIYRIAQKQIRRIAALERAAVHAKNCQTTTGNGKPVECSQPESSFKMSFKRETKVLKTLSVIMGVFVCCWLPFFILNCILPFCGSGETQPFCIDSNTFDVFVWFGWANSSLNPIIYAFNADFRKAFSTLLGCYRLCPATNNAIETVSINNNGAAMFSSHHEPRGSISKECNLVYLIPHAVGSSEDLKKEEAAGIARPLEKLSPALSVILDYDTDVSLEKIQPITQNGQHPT

Structure (SMILES)	IC50 [1]	Ki [1]	IC50 [2]	IC50 (D(1A) dopamine receptor)	IC50 [3]	IC50 [4]	Ki [4]	IC50 [5]	IC50 ([4]; read-out: IC50)	Ki ([4]; read-out: Ki)
O=C(c1ccccc1C(F)(F)F)N1CCC(Cc2ccccc2)CC1	Not Active	Not Active	Not Active	Not Active	Not Active	Not Active	Not Active	Not Active		
O=C/C=C/c1ccccc1	Not Active	Not Active	Not Active	Not Active	Not Active	Not Active	Not Active	Not Active		
Nc1ccc2c3c(cccc13)C(=O)NC2=O	Not Active	Not Active	Not Active	Not Active	Not Active	Not Active	Not Active	Not Active		
COc1ccc(C(=O)N2CCCC2=O)cc1	Not Active	Not Active	Not Active	Not Active	Not Active	Not Active	Not Active	Not Active		
O=c1cnn([C@@H]2O[C@H](CO)[C@@H](O)[C@H]2O)c(=O)[nH]1 [6-AZAURIDINE]	Not Active	Not Active	Not Active	Not Active	Not Active	Not Active	Not Active	Not Active		
CC[C@H](C)[C@H]1O[C@]2(C=C[C@@H]1C)C[C@@H]1C[C@@H](C/C=C(\C)[C@@H](O[C@H]3C[C@H](OC)[C@@H](O[C@H]4C[C@H](OC)[C@@H](O)[C@H](C)O4)[C@H](C)O3)[C@@H](C)/C=C/C=C3\CO[C@@H]4[C@H](O)C(C)=C[C@@H](C(=O)O1)[C@]34O)O2.CO[C@H]1C[C@H](O[C@H]2[C@H](C)O[C@@H](O[C@@H]3/C(C)=C/C[C@@H]4C[C@@H](C[C@]5(C=C[C@H](C)[C@@H](C(C)C)O5)O4)OC(=O)[C@@H]4C=C(C)[C@@H](O)[C@H]5OC/C(=C\C=C\[C@@H]3C)[C@]54O)C[C@@H]2OC)O[C@@H](C)[C@@H]1O [ABAMECTIN]	Not Active	Not Active	Not Active		Not Active	Not Active	Not Active	Not Active		
NCCCC(O)(P(=O)(O)O)P(=O)(O)O [ALENDRONIC ACID]	Not Active	Not Active	Not Active	Not Active	Not Active	Not Active	Not Active	Not Active		
Cc1nnc2n1-c1ccc(Cl)cc1C(c1ccccc1)=NC2 [ALPRAZOLAM]	Not Active	Not Active	Not Active	Not Active	Not Active	Not Active	Not Active	Not Active		
Cn1c(=O)c2[nH]cnc2n(C)c1=O.Cn1c(=O)c2[nH]cnc2n(C)c1=O.NCCN [AMINOPHYLLINE]	Not Active	Not Active	Not Active	Not Active	Not Active	Not Active	Not Active	Not Active		
CCC1(CCC(C)C)C(=O)NC(=O)NC1=O [AMOBARBITAL]	Not Active	Not Active	Not Active	Not Active	Not Active	Not Active	Not Active	Not Active		
CC1(C)S[C@@H]2[C@H](NC(=O)[C@H](N)c3ccccc3)C(=O)N2[C@H]1C(=O)O [AMPICILLIN]	Not Active	Not Active	Not Active	Not Active	Not Active	Not Active	Not Active	Not Active		
COc1ccc(C2C(=O)c3ccccc3C2=O)cc1 [ANISINDIONE]	Not Active	Not Active	Not Active	Not Active	Not Active	Not Active	Not Active	Not Active		
O=C1O[C@H]([C@@H](O)CO)C(O)=C1O [ASCORBIC ACID]	Not Active	Not Active	Not Active	Not Active	Not Active	Not Active	Not Active	Not Active		
CN1[C@@H]2CC[C@H]1C[C@@H](OC(=O)C(CO)c1ccccc1)C2 (some centres undefined) [ATROPINE]	Not Active	Not Active	Not Active	Not Active	Not Active	Not Active	Not Active	Not Active		
CC(C(=O)O)c1ccc2oc(-c3ccc(Cl)cc3)nc2c1 (centres undefined) [BENOXAPROFEN]	Not Active	Not Active	Not Active	Not Active	Not Active	Not Active	Not Active	Not Active		
COc1ccc2cc3[n+](cc2c1OC)CCc1cc2c(cc1-3)OCO2.[Cl-] [BERBERINE CHLORIDE]	Not Active	Not Active	Not Active		Not Active			Not Active	1280 nM	852 nM
O=C(O)CCNC(=O)c1ccccc1 [BETAMIPRON]	Not Active	Not Active	Not Active	Not Active	Not Active	Not Active	Not Active	Not Active		
CC(=O)Oc1ccc(C(c2ccc(OC(C)=O)cc2)c2ccccn2)cc1 [BISACODYL]	Not Active	Not Active	Not Active	Not Active	Not Active	Not Active	Not Active	Not Active		
Cc1cc2c(OCC(CNC(C)(C)C)OC(=O)c3ccccc3)cccc2[nH]1 (centres undefined) [BOPINDOLOL]	Not Active	Not Active	Not Active	Not Active	Not Active	Not Active	Not Active	Not Active		
Brc1c(NC2=NCCN2)ccc2nccnc12 [BRIMONIDINE]	Not Active	Not Active	Not Active	Not Active	Not Active			Not Active	74 nM	49 nM
CN(C)[C@@H]1C(O)=C(C(N)=O)C(=O)[C@@]2(O)C(O)=C3C(=O)c4c(O)ccc(Cl)c4[C@@](C)(O)[C@H]3C[C@@H]12 [CHLORTETRACYCLINE]	Not Active	Not Active	Not Active	Not Active	Not Active	Not Active	Not Active	Not Active		
CN/C(=N\CCSCc1nc[nH]c1C)NC#N [CIMETIDINE]	Not Active	Not Active	Not Active	Not Active	Not Active	Not Active	Not Active	Not Active		
COc1cc(N)c(Cl)cc1C(=O)NC1CCN(CCCOc2ccc(F)cc2)CC1OC (centres undefined) [CISAPRIDE]	Not Active	Not Active	Not Active	Not Active	Not Active	Not Active	Not Active	Not Active		
O=C(O)c1cccnc1Nc1cccc(C(F)(F)F)c1 [NIFLUMIC ACID]	Not Active	Not Active	Not Active	Not Active	Not Active	Not Active	Not Active			
